Laboratory results published in patent US11981740B2, “BAFF-R antibodies and uses thereof” (CITY OF HOPE, priority 2016, dated 2024).

Tests used:
[1] = test system: RS4; 11 (acute lymphoblastic leukemia, ALL); assay: In vivo RS4;11 ALL xenograft, bioluminescence imaging; conditions: RS4;11 challenged NSG mice
Source text: FIG. 4A is a schematic showing treatment schedule following Day 0 tumor challenge with minimum lethal dose of tumors. Treatments were given by IV tail vein injections. FIGS. 4B and 4C are images showing chimeric antibodies targeting human BAFF-R elicited in vivo therapeutic effects against B-cell tumors. Bioluminescence images of mice challenged with luciferase-expressing tumors: JeKo-1 (MCL) (FIG. 4B) or RS4; 11 (ALL) (FIG. 4C). Experimental groups received treatment of chimeric BAFF-R mAbs (C55 or C90, as indicated). Control group mice received PBS, NK cells alone, or rituximab on the same schedule. Data are representative of three independent experiments.
(§1) In vivo studies. For tumor models, stable, luciferase-expressing tumors lines were established for bioluminescent imaging in mouse models. Briefly, a luciferase gene was introduced into tumor lines by a lentivirus gene delivery system (pLenti7.3/V5-DEST Gateway Vector Kit, Life Technologies, Carlsbad, CA). The minimum lethal dose per mouse was determined for each tumor cell line by dose titration. Tumor cells were injected intravenously (IV) and mice were monitored by in vivo bioluminescence imaging for minimum tumor dose to ensure engraftment. Minimum lethal tumor doses were: 1×10^6 JeKo-1, 5×10^5 RS4; 11, 5×10^5 JeKo-1-CD20-KO, or 2.5×10^4 Z-138 cells. […]

[2] = test system: JeKo-1-CD20-KO clone 25; assay: ADCC on rituximab-resistant JeKo-1-CD20-KO; type: cell-based; conditions: E:T=20:1
Procedure: FIGS. 5A, 5B and 5C are images or graphs showing chimeric BAFF-R antibodies induce ADCC on drug resistant lymphoma models in vitro. FIG. 5A is a scatterplot of FACS analysis showing CD20 binding on JeKo-1 cells following CRISPR/HDR knock-out of CD20 gene. CD20 expression on selected CD20−/−clone #25 compared to WT JeKo-1. ADCC effects measured by chromium-51 release after incubation with C55, C90, or rituximab and effectors NK cells (E:T=20:1). Percentage of cell specific lysis of target cells: rituximab-resistant JeKo-1-CD20-KO (FIG. 5B) and ibrutinib-resistant Z-138 and SP49-IR (FIG. 5C). All data are representative of two or more identical experiments. Data are shown as the mean±s.d. of triplicate samples. *P<0.05 compared with NK cells by two-tailed Student's t-test.
Cytotoxicity assays. Target cells (L cells, human tumor lines, primary patient samples) were labeled with chromium-51 (51Cr, Perkin Elmer, Waltham, MA) for a 51Cr release assay. Briefly, antibodies and effectors (NK cells or complement serum standard [Sigma Aldrich, St. Louis, MO]), were added to labeled target cells and incubated up to 18 hours. NK cells were enriched from PBMC (NK cell enrichment kit, Stemcell Technologies, Vancouver, Canada). 51Cr released into supernatant was detected with a Wizard Automatic Gamma Counter (Perkin Elmer).
Generation of JeKo-1-CD20-KO. […]

[3] = test system: JeKo-1-CD20-KO tumor cells; assay: In vivo JeKo-1-CD20-KO xenograft; parameters: species or system NSG mice; conditions: Day 20
Source text: FIGS. 6A and 6B are images and FIG. 6C are graphs showing chimeric antibodies targeting human BAFF-R elicited in vivo therapeutic effects against drug resistant B-cell tumors. Bioluminescence images of mice challenged with luciferase-expressing tumors JeKo-1-CD20-KO cells (FIG. 6A) or ibrutinib-resistant Z-138 cells (FIG. 6B) followed by antibody treatments as in FIG. 4. Control group mice received PBS, NK cells alone, or rituximab on the same schedule. […] Tumor free rate and survival differences between experimental and all control groups were analyzed by log-rank test (**P<0.001). Data are representative of three independent experiments.
as §1

[4] = test system: JeKo-1, Z138, and RS4 lines; assay: ADCC chromium release of humanized C90-4 and C90-5, dose response; type: cell-based; conditions: RS4 acute lymphoblastic lymphoma
Procedure: FIGS. 21A and 21B are graphs showing humanized antibodies C90-4 and C90-5 analyzed for their specific cytotoxicity of various lymphoma lines. For FIG. 21A, JeKo-1, Z138, and RS4 were subjected to a chromium release assay with humanized antibodies C90-4 and C90-5. Antibodies were administered to the cell lines at concentrations between 0 to 5 μg/mL and incubated for 6 hours with NK cells at an E:T ratio of 20:1. The cell supernatants were analyzed for their chromium content. For FIG. 21B, LY-10, MEC-2, RL, and Raji lymphoma lines were subjected to a chromium release assay with humanized antibodies C90-4 and C90-5. Antibodies were administered to the cell lines at 5 μg/mL and incubated for 6 hours with NK cells at an E:T ratio of 20:1. The cell supernatants were analyzed for their chromium content.
The two variants were further assessed in their ability to initiate ADCC. The antibodies were administered in varying concentration to JeKo-1, Z138, and RS4 lines after a period of chromium uptake. The cells and antibodies were incubated with effector NK cells. The supernatant was analyzed 6 hours post treatment (FIG. 21A).

[5] = test system: SP49 cells; assay: Ibrutinib sensitivity of parental SP49 cells; type: cell-based
Source text: (§2) Animals, cell lines, and primary human tumor samples. BALB/c mice for antibody development and NOD scid gamma (NSG) breeding pairs were purchased from The Jackson Laboratory (Bar Harbor, ME). The NSG breeding colony was maintained by the Animal Resource Center at City of Hope. Mice were housed in a pathogen-free animal facility according to institutional guidelines. All animal studies were approved by the Institutional Animal Care and Use Committee (IACUC: 15020). JeKo-1, SU-DHL-6, Raji, U266 and RL were purchased from ATCC (Manassas, VA). Z-138 line was provided by Dr. Michael Wang (MD Anderson Cancer Center). Ibrutinib-resistant SP49-IR line was developed and provided by Dr. Jianguo Tao (University of South Florida). Ibrutinib-resistant SP49 cell lines (SP49-IR) were established by treating cells with escalating doses of ibrutinib. IC50 was 5 nM for parental SP49 compared to >100 nM for SP49-IR. At 100 nM ibrutinib ˜5% of SP49 cells were viable compared with >90% of SP49-IR cells. Human NK-92 176V cells were obtained from Conkwest Inc. (San Diego, CA). For human blood and tumor samples, non-cultured, primary human lymphomas were obtained as cryopreserved, viable single cell suspensions in 10% DMSO from the Lymphoma Satellite Tissue Bank at MD Anderson Cancer Center under an Institutional Review Board approved protocol (IRB: 2005-0656). […]

[6] = test system: SP49-IR cells; assay: Ibrutinib sensitivity of ibrutinib-resistant SP49-IR cells; type: cell-based
Source text: as §2

| Compound | tumor growth [1] | sensitivity to antibody-mediated cytotoxicity [2] | tumor burden by bioluminescent imaging [3] | ADCC activity [4] | viability at 0.1 µM ([5]; At 100 nM ibrutinib, SP49, read-out: viable cells) | IC50 ([5]; parental SP49) | IC50 [6] | viability at 0.1 µM ([6]; At 100 nM ibrutinib, read-out: viable cells) |
| --- | --- | --- | --- | --- | --- | --- | --- | --- |
| rituximab [reference compound] | no inhibition | insensitive | substantial tumor burden | not active |  |  |  |  |
| C=CC(=O)N1CCC[C@@H](n2nc(-c3ccc(Oc4ccccc4)cc3)c3c(N)ncnc32)C1 [ibrutinib] |  |  |  |  | ~5% | 5 nM | > 100 nM | > 90% |
